Patent US20100009853A1, “PARASITIC PLANT CONTROL AGENT AND USE THEREOF” (Nihon Nohyaku Co., Ltd, priority 2006, published 2010)

How the values were obtained:
Assay type in all cases: in vivo
Orobanche minor [1] = test: Test Example 1: seed soaking treatment, parasitism of Orobanche minor on red clover; conditions: for Average parasitism frequency per root / S4 bud formation per root: seed soaking 24 h; for Average parasitism frequency per root: red clover host, untreated plot 2.55; for S4 bud formation per root: untreated plot 0.52
Method: Red clover seeds were soaked for 24 hours in agent liquid which had been prepared into a predetermined concentration. The red clover seeds were sowed in a pot packed with soil (1/10000 ares) and Orobanche minor seeds were sowed around the red clover seeds, followed by cultivation in a greenhouse. Growth of the red clover and the parasitism frequency and growth of Orobanche minor were observed by visual observation. The growth of Orobanche minor was evaluated based on the following four steps. [table]

Orobanche minor [2] = test: Test Example 3: foliage application treatment, parasitism of Orobanche minor on red clover; conditions: for Average parasitism frequency per root: foliage application at 10, 20 and 30 days after sowing, untreated plot 2.55; for S4 bud formation per root: untreated plot 0.52
Text: (§1) The red clover seeds were sowed in a pot packed with soil (1/10000 ares) and Orobanche minor seeds were sowed around the red clover seeds, followed by cultivation in a greenhouse. After 10, 20 and 30 days of the sowing, sufficient amount of agent liquid diluted to a predetermined concentration with water was applied to the foliage using an atomizer, from single- to double-leaf stage of the red clover.

Orobanche minor [3] = test: Test Example 2: soil irrigation treatment, parasitism of Orobanche minor on red clover; conditions: for Average parasitism frequency per root: soil irrigation 20 ml/pot at 10, 20 and 30 days after sowing, untreated plot 2.55; for S4 bud formation per root: untreated plot 0.52
Method: The red clover seeds were sowed in a pot packed with soil (1/10000 ares) and Orobanche minor seeds were sowed around the red clover seeds, followed by cultivation in a greenhouse. After 10, 20 and 30 days of the sowing, an agent liquid prepared into a predetermined concentration was irrigation-treated at a ratio of 20 ml/pot.

parasitic plant = test: Parasitic plant controlling activity (general statement); conditions: general statement in the description
Orobanche minor [4] = test: Test Example 6: foliage application treatment, parasitism of Orobanche minor on red clover; conditions: for Average parasitism frequency per root: foliage application at 10, 20 and 30 days after sowing, untreated plot 2.08; for S4 bud formation per root: untreated plot 0.45
Text: as §1

Orobanche minor [5] = test: Test Example 4: seed soaking treatment, parasitism of Orobanche minor on red clover; conditions: for S4 bud formation per root / Average parasitism frequency per root: seed soaking 24 h; for S4 bud formation per root: untreated plot 0.45; for Average parasitism frequency per root: untreated plot 2.08
Method: Red clover seeds were soaked for 24 hours in agent liquid which had been prepared into a predetermined concentration. The red clover seeds were sowed in a pot packed with soil (1/10000 ares) and Orobanche minor seeds were sowed around the red clover seeds, followed by cultivation in a greenhouse. Growth of the red clover and the parasitism frequency and growth of Orobanche minor were observed by visual observation.

red clover = test: Test Example 5: phytotoxicity of soil irrigation treatment on red clover; conditions: symptom growth inhibition
Method: (§2) The red clover seeds were sowed in a pot packed with soil (1/10000 ares) and Orobanche minor seeds were sowed around the red clover seeds, followed by cultivation in a greenhouse. After 10, 20 and 30 days of the sowing, agent liquid prepared into a predetermined concentration was irrigation-treated at a ratio of 20 ml/pot.

Orobanche minor [6] = test: Test Example 5: soil irrigation treatment, parasitism of Orobanche minor on red clover; conditions: for Average parasitism frequency per root: soil irrigation 20 ml/pot at 10, 20 and 30 days after sowing, untreated plot 2.08; for S4 bud formation per root: untreated plot 0.45
Method: as §2

crop plants = test: Phytotoxicity for crop plants (general statement); conditions: general statement in the description
[7] = seed soaking, all treatment plots (200 and 20 ppm)

Cc1ccc(NC(=O)c2snnc2C)cc1Cl [TDN, tiadinil]
Average parasitism frequency per root (Orobanche minor [1]; 20 ppm): 1.07 per root | S4 bud formation per root (Orobanche minor [1]; 20 ppm): 0.08 per root | Average parasitism frequency per root (Orobanche minor [1]; 200 ppm): 2.57 per root | S4 bud formation per root (Orobanche minor [1]; 200 ppm): 0.21 per root | Average parasitism frequency per root (Orobanche minor [1]; 2000 ppm): 2.01 per root | S4 bud formation per root (Orobanche minor [1]; 2000 ppm): 0.15 per root | number of total parasitized cases of Orobanche minor (Orobanche minor [1]; seed soaking, 20 ppm): reducing tendency | parasitism, dose relation (Orobanche minor [2]; foliage application): dose-related lowering | Average parasitism frequency per root (Orobanche minor [2]; 20 ppm): 1.49 per root | Average parasitism frequency per root (Orobanche minor [2]; 200 ppm): 1.02 per root | Average parasitism frequency per root (Orobanche minor [2]; 2000 ppm): 0.24 per root | S4 bud formation per root (Orobanche minor [2]; foliage application, 20 ppm): 0.15 per root | S4 bud formation per root (Orobanche minor [2]; foliage application, 200 ppm): 0.06 per root | effect on parasitism (Orobanche minor [2]; foliage application, 2000 ppm): high effect | S4 bud formation per root (Orobanche minor [2]; foliage application, 2000 ppm): 0.03 per root | effective concentration (Orobanche minor [3]; soil irrigation): ≥ 200 ppm | parasitism, dose relation (Orobanche minor [3]; soil irrigation): dose-related lowering | Average parasitism frequency per root (Orobanche minor [3]; 2 ppm): 2.36 per root | Average parasitism frequency per root (Orobanche minor [3]; 20 ppm): 1.71 per root | Average parasitism frequency per root (Orobanche minor [3]; 200 ppm): 0.53 per root | Average parasitism frequency per root (Orobanche minor [3]; 2000 ppm): 0.03 per root | S4 bud formation per root (Orobanche minor [3]; soil irrigation, 2 ppm): 0.17 per root | S4 bud formation per root (Orobanche minor [3]; soil irrigation, 20 ppm): 0.10 per root | S4 bud formation per root (Orobanche minor [3]; soil irrigation, 200 ppm): 0.16 per root | Parasitism (Orobanche minor [3]; soil irrigation, 2000 ppm): hardly found | S4 bud formation per root (Orobanche minor [3]; soil irrigation, 2000 ppm): 0.00 per root | parasitic plant controlling activity (parasitic plant): high | Average parasitism frequency per root (Orobanche minor [4]; 20 ppm): 2.25 per root | Average parasitism frequency per root (Orobanche minor [4]; 200 ppm): 1.92 per root | Average parasitism frequency per root (Orobanche minor [4]; 2000 ppm): 0.34 per root | S4 bud formation per root (Orobanche minor [4]; foliage application, 20 ppm): 0.49 per root | parasitism frequency decreasing tendency (Orobanche minor [4]; foliage application, 200 ppm or less): unclear | S4 bud formation per root (Orobanche minor [4]; foliage application, 200 ppm): 0.35 per root | S4 bud formation (Orobanche minor [4]; foliage application, 2000 and 200 ppm): decreasing tendency | parasitism frequency (Orobanche minor [4]; foliage application, 2000 ppm): decreasing tendency | S4 bud formation per root (Orobanche minor [4]; foliage application, 2000 ppm): 0.15 per root | S4 bud formation per root (Orobanche minor [5]; 20 ppm): 0.10 per root | Average parasitism frequency per root (Orobanche minor [5]; 20 ppm): 1.12 per root | S4 bud formation per root (Orobanche minor [5]; 200 ppm): 0.12 per root | Average parasitism frequency per root (Orobanche minor [5]; 200 ppm): 0.05 per root | S4 bud formation (Orobanche minor [5]; [7]): decreasing tendency | total parasitism frequency of Orobanche minor (Orobanche minor [5]; [7]): decreasing tendency | phytotoxicity (red clover; 200 ppm): weak | phytotoxicity (red clover; 2000 ppm): strong | Average parasitism frequency per root (Orobanche minor [6]; 20 ppm): 2.22 per root | Average parasitism frequency per root (Orobanche minor [6]; 200 ppm): 1.55 per root | Average parasitism frequency per root (Orobanche minor [6]; 2000 ppm): 0.22 per root | S4 bud formation per root (Orobanche minor [6]; soil irrigation, 20 ppm): 0.13 per root | S4 bud formation per root (Orobanche minor [6]; soil irrigation, 200 ppm): 0.11 per root | parasitism frequency (Orobanche minor [6]; soil irrigation, 2000 and 200 ppm): reducing tendency | S4 bud formation per root (Orobanche minor [6]; soil irrigation, 2000 ppm): 0.07 per root | S4 bud formation (Orobanche minor [6]; soil irrigation, all treatment plots): reduced | phytotoxicity (crop plants): low
